Holding throughout (format): cell-based
Assay [1] relates to MCF-7 (Breast). The experiment in a line: Cytotoxicity, MTT assay, MCF-7. To be noted: Homo sapiens; for inhibition at 10 µM: MCF7, 10 μM, read-out: Cell Growth Inhibition (%); for IC50: MCF7. How it is done: (§1) Compounds proposed in the present invention were evaluated for their cytotoxic effect against panel of six cancer cell line viz. HL-60 (Leukemia), PC-3 (Prostate), A-375 (Melanoma), MIAPaCa-2 (pancreatic), MCF-7 (Breast) and Caco-2 (Colon) using MTT assay. In each well of a 96-well plate, 3×10^3 cells were grown in 100 μL of medium. After 24 h, each test molecules were added to achieve a final concentration of 10 to 0.01 μmol/L, respectively. After 48 h of treatment, 20 μL of 2.5 mg/mL MTT (Organics Research, Inc.) solution in phosphate buffer saline was added to each well. After 48 h, supernatant was removed and formazan crystals were dissolved in 200 μL of DMSO. Absorbance was then measured at 570 nm using an absorbance plate reader (Bio-Rad Microplate Reader). Data are expressed as the percentage of viable cells in treated relative to non-treated conditions.

Assay [2] deals with PC-3 (Prostate). The assay is described as follows: Cytotoxicity, MTT assay, PC-3. To be noted: for inhibition at 10 µM: read-out: Cell Growth Inhibition (%). How it is done:
as §1
(In general: Tetrazolium dyes change colour on reduction, which living cells bring about.)

Assay [3] relates to MIAPaCa-2 (pancreatic). The experiment in a line: Cytotoxicity, MTT assay, MIAPaCa-2. To be noted: Homo sapiens, MIA PaCa-2, read-out: Cell Growth Inhibition (%). How it is done:
as §1

In assay [4] the test system is Caco-2 (Colon). The assay is described as follows: Cytotoxicity, MTT assay, Caco-2. To be noted: Homo sapiens; for inhibition at 10 µM: read-out: Cell Growth Inhibition (%). The procedure:
as §1

In assay [5] the test system is HL-60 (Leukemia). The assay is described as follows: Cytotoxicity, MTT assay, HL-60. To be noted: Homo sapiens; for inhibition at 10 µM: read-out: Cell Growth Inhibition (%). How it is done: as §1
The subject of assay [6] is A-375 (Melanoma). The experiment in a line: Cytotoxicity, MTT assay, A-375. To be noted: Homo sapiens; for inhibition at 10 µM: read-out: Cell Growth Inhibition (%). The procedure:
as §1

Structures are written as SMILES.

A word on the inhibition: it is the share of the control response that was lost under treatment. Usually IC50 stands for the concentration needed to halve the response being measured. Lower therefore signals greater potency in that assay.

Consider `Cc1oc2c(C3CCN(C)CC3O)c(O)cc(O)c2c(=O)c1C(O)c1ccccc1Br` (centres unmarked) [Compound 15, 3-((2-Bromophenyl)(hydroxy)methyl)-5,7-dihydroxy-8-(3-hydroxy-1-methylpiperidin-4-yl)-2-methyl-4H-chromen-4-one], for which the inhibition at 10 µM in assay [1] amounted to 20.6%; in assay [2] it was 44.5%; in assay [3], 10.1%; in assay [4], 6.62%; in assay [5], 52%; in assay [6], 22.4%.
Regarding `Cc1cc(=O)c2c(O)cc(OCc3ccccc3Br)c(C3CCN(C)CC3O)c2o1` (centres unmarked) [Compound 9, 7-(2-Bromobenzyloxy)-5-hydroxy-8-(3-hydroxy-1-methylpipetidin-4-yl)-2-methyl-4H-chromen-4-one], the inhibition at 10 µM in assay [1] was 45.4%; in assay [2], 31.7%; in assay [3], 29.7%; in assay [4] it was 35.1%; in assay [5], 3.05%; in assay [6], 58.6%. The IC50 in assay [6] was 12 µM.
`CN1CCC(c2c(O)cc(O)c3c(=O)cc(/C=C/c4ccccc4)oc23)C(O)C1` (centres unmarked) [Compound 31, 2-styryl-5,7-dihydroxy-8-(3-hydroxy-1-methylpiperidin-4-yl)-4H-chromen-4-one]: the IC50 in assay [1] is 31 µM; in assay [2] it was 58 µM; in assay [4], 3.7 µM; in assay [5], 1 µM; in assay [6], 4.4 µM.
For `Cc1cc(=O)c2c(O)cc(OC/C=C/c3ccccc3)c(C3CCN(C)CC3O)c2o1` (centres unmarked) [Compound 7, 7-(Cinnamyloxy)-5-hydroxy-8-(3-hydroxy-1-methylpiperidin-4-yl)-2-methyl-4H-chromen-4-one], the inhibition at 10 µM in assay [1] was found to be 7.02%; in assay [2], 18.3%; in assay [3] it was 11.2%; in assay [4], 9.49%; in assay [5], 21%; in assay [6], 21.8%.
Consider `Cc1cc(=O)c2c(O)cc(OCc3cccs3)c(C3CCN(C)CC3O)c2o1` (centres unmarked) [Compound 6, 7-((Thiophen-2-yl)methoxy)-5-hydroxy-8-(3-hydroxy-1-methylpiperidin-4-yl)-2-methyl-4H-chromen-4-one], for which the inhibition at 10 µM in assay [1] amounted to 19.8%; in assay [2], 22.8%; in assay [3], 13.2%; in assay [4] it was 33.3%; in assay [5] it was 22.2%; in assay [6], 53.8%. The compound also showed a half-inhibitory concentration (IC50) in assay [6] of 8 µM.
Take `CN1CCC(c2c(O)cc(O)c3c(=O)cc(/C=C/c4ccccc4F)oc23)C(O)C1` (centres unmarked) [Compound 30, 2-(2-Fluorostyryl)-5,7-dihydroxy-8-(3-hydroxy-1-methylpiperidin-4-yl)-4H-chromen-4-one]: the concentration for half-maximal inhibition (IC50) in assay [1] stood at 3 µM; in assay [2], 7 µM; in assay [4] it was 8 µM; in assay [5], 8 µM; in assay [6], 7 µM. The inhibition at 10 µM in assay [1] stood at 81.1%; in assay [2], 72.2%; in assay [3], 21.3%; in assay [4] it was 51%; in assay [5], 80.5%; in assay [6], 54.1%.
Consider `Cc1oc2c(C3CCN(C)CC3O)c(O)cc(O)c2c(=O)c1C(O)c1ccc([N+](=O)[O-])cc1` (centres unmarked) [Compound 13, 5,7-Dihydroxy-3-(hydroxy(4-nitrophenyl)methyl)-8-(3-hydroxy-1-methylpiperidin-4-yl)-2-methyl-4H-chromen-4-one], for which the inhibition at 10 µM in assay [1] was found to be 4.03%; in assay [2], 23.8%; in assay [3], 2.48%; in assay [4] it was 5.08%; in assay [5], 0%; in assay [6], 35.9%.
Regarding `Cc1cc(=O)c2c(O)cc(OCc3ccccc3)c(C3CCN(C)CC3O)c2o1` (centres unmarked) [Compound 2, 7-(benzyloxy)-5-hydroxy-8-(3-hydroxy-1-methylpiperidin-4-yl)-2-methyl-4H-chromen-4-one], the inhibition at 10 µM in assay [1] was determined as 1.44%; in assay [2] it was 41%; in assay [3] it was 13.8%; in assay [4], 17.6%; in assay [5], 24.3%; in assay [6], 27.8%.
In the case of `Cc1cc(=O)c2c(O)cc(OC(=O)c3ccccc3C)c(C3CCN(C)CC3O)c2o1` (centres unmarked) [Compound 12, 5-Hydroxy-8-(3-hydroxy-1-methylpiperidin-4-yl)-2-methyl-4-oxo-4H-chromen-7-yl 2-methylbenzoate], the inhibition at 10 µM in assay [1] stood at 13.4%; in assay [2], 18.6%; in assay [3], 7.19%; in assay [4] it was 6.53%; in assay [5] it was 12.8%; in assay [6], 42%.
With `Cc1cc(=O)c2c(O)cc(OC(=O)c3ccco3)c(C3CCN(C)CC3O)c2o1` (centres unmarked) [Compound 11, 5-Hydroxy-8-(3-hydroxy-1-methylpiperidin-4-yl)-2-methyl-4-oxo-4H-chromen-7-yl furan-2-carboxylate], the inhibition at 10 µM turned out to be 2.86% in assay [1]; 15.1% in assay [2]; 16.1% in assay [3]; 1.96% in assay [4]; 80.2% in assay [5]; 11.2% in assay [6].
Take `CN1CCC(c2c(O)cc(O)c3c(=O)cc(/C=C/c4c5ccccc5cc5ccccc45)oc23)C(O)C1` (centres unmarked) [Compound 29, 2-((E)-2-(Anthracen-10-yl)vinyl)-5,7-dihydroxy-8-(3-hydroxy-1-methylpiperidin-4-yl)-4H-chromen-4-one]: the inhibition at 10 µM in assay [1] came out at 12.7%; in assay [2], 50.5%; in assay [3], 17%; in assay [4] it was 0%; in assay [5], 12.1%; in assay [6], 4.96%. In addition, the half-inhibitory concentration (IC50) in assay [2] stood at 12 µM.
Consider `Cc1oc2c(C3CCN(C)CC3O)c(O)cc(O)c2c(=O)c1C(O)c1ccc(Cl)cc1` (centres unmarked) [Compound 14, 3-((4-Chlorophenyl)(hydroxy)methyl)-5,7-dihydroxy-8-(3-hydroxy-1-methylpiperidin-4-yl)-2-methyl-4H-chromen-4-one], for which the inhibition at 10 µM was found to be 5.91% in assay [1]; 41% in assay [2]; 14.8% in assay [3]; 2.83% in assay [4]; 1.93% in assay [5]; 34.2% in assay [6]. In assay [5], this compound registered an IC50 of 11 µM.
Take `Cc1cc(=O)c2c(O)cc(OCc3ccc(Br)cc3)c(C3CCN(C)CC3O)c2o1` (centres unmarked) [Compound 4, 7-(4-Bromobenzyloxy)-5-hydroxy-8-(3-hydroxy-1-methylpiperidin-4-yl)-2-methyl-4H-chromen-4-one]: the inhibition at 10 µM in assay [1] was determined as 14%; in assay [2], 17.1%; in assay [3], 13.2%; in assay [4], 13%; in assay [5], 26.9%; in assay [6], 45.5%.
As for `Cc1oc2c(C3CCN(C)CC3O)c(O)cc(O)c2c(=O)c1C(O)c1cccc(Cl)c1` (centres unmarked) [Compound 17, 3-((3-Chlorophenyl)(hydroxy)methyl)-5,7-dihydroxy-8-(3-hydroxy-1-methylpiperidin-4-yl)-2-methyl-4H-chromen-4-one], the inhibition at 10 µM was 5.01% in assay [1]; 31% in assay [2]; 1.52% in assay [3]; 4.42% in assay [4]; 22.2% in assay [5]; 34.9% in assay [6].
As for `COc1ccc(COc2cc(O)c3c(=O)cc(C)oc3c2C2CCN(C)CC2O)cc1` (centres unmarked) [Compound 3, 7-(4-Methoxybenzyloxy)-5-hydroxy-8-(3-hydroxy-1-methylpiperidin-4-yl)-2-methyl-4H-chromen-4-one], the inhibition at 10 µM was determined as 15.6% in assay [1]; 35.2% in assay [2]; 15.7% in assay [3]; 8.43% in assay [4]; 22.8% in assay [5].
As for `Cc1cc(=O)c2c(O)cc(OCc3nc4ccccc4[nH]3)c(C3CCN(C)CC3O)c2o1` (centres unmarked) [Compound 10, 7-((1H-Benzo[d]imidazol-2-yl)methoxy)-5-hydroxy-8-(3-hydroxy-1-methylpiperidin-4-yl)-2-methyl-4H-chromen-4-one], half-maximal inhibition in assay [5] (IC50) required 8 µM.
In the case of `Cc1oc2c(C3CCN(C)CC3O)c(O)cc(O)c2c(=O)c1C(O)c1c(Cl)cccc1Cl` (centres unmarked) [Compound 20, 3-((2,6-dichlorophenyl)(hydroxy)methyl)-5,7-dihydroxy-8-(3-hydroxy-1-methylpiperidin-4-yl)-2-methyl-4H-chromen-4-one], the IC50 in assay [2] came to 5 µM.
For the compound `CN1CCC(c2c(O)cc(O)c3c(=O)cc(/C=C/c4ccc(Cl)cc4)oc23)C(O)C1` (centres unmarked) [Compound 32, 2-(4-Chlorostyryl)-5,7-dihydroxy-8-(3-hydroxy-1-methylpiperidin-4-yl)-4H-chromen-4-one], the IC50 in assay [1] was 49 µM; in assay [2], 31 µM; in assay [4], 5.6 µM; in assay [5], 8 µM; in assay [6], 30 µM.

(Values after patent US9932327B2, “Rohitukine analogs as cyclin-dependent kinase inhibitors and a process for the preparation thereof” (COUNCIL OF SCIENTIFIC AND INDUSTRIAL RESEARCH, priority 2013, dated 2018).)
